Literature values, collected in patent publication US10188676B2, “Anti-inflammatory solution” (Hypo-Stream Limited, priority 2013, dated 2019).

Test system: alveolar osteitis (AO)
Conditions: 0.2% solution or gel, surgical site irrigation

[H]/N=C(\N/C(=N/[H])NCCCCCCNC(=N)NC(=N)Nc1ccc(Cl)cc1)Nc1ccc(Cl)cc1 [chlorhexidine]
effectiveness against alveolar osteitis: Neither report found evidence of effectiveness
